Experimental data published in ChEMBL document CHEMBL6109066, “Synthesis, cytotoxic evaluation, and molecular docking of novel zerumbone oxime esters and azazerumbone derivatives” (Bioorg Med Chem Lett, 2025).
In brackets after ≈: the same amount, converted by molar mass.

Columns and labels:
Type in all cases: functional, cell-based
HepG2 = assay: Cytotoxicity against human HepG2 cells
HL-60 = assay: Cytotoxicity against human HL-60 cells
A549 = assay: Cytotoxicity against human A549 cells
AGS = assay: Cytotoxicity against human AGS cells

Row | SMILES | IC50 (HepG2) | IC50 (HL-60) | IC50 (A549) | IC50 (AGS)
1 | C/C1=C\CC(C)(C)/C=C/C(=N/OC(=O)CCl)C(/C)=C/CC1 | 37.5 µg/mL (≈ 121 µM) | 9.03 µg/mL (≈ 29.1 µM) | 46.1 µg/mL (≈ 149 µM) | 44.6 µg/mL (≈ 144 µM)
2 | C\C1=C/CC/C(C=O)=C/CC(C)(C)/C=C/C1=N/O | 64.1 µg/mL (≈ 259 µM) | 37.7 µg/mL (≈ 152 µM) | 91.8 µg/mL (≈ 371 µM) | 53.9 µg/mL (≈ 218 µM)
3 | C/C1=C\CC(C)(C)/C=C/C(=N/OC(=O)[C@H](NC(=O)OC(C)(C)C)C(C)C)C(/C)=C/CC1 | 1.59 µg/mL (≈ 3.68 µM) | 3.88 µg/mL (≈ 8.97 µM) | 2.01 µg/mL (≈ 4.65 µM) | 3.21 µg/mL (≈ 7.42 µM)
4 | C/C1=C\CC(C)(C)/C=C/C(=N/OC(=O)c2ccc(Br)cc2)C(/C)=C/CC1 | 12.2 µg/mL (≈ 29.4 µM) | 15.4 µg/mL (≈ 36.9 µM) | 40.8 µg/mL (≈ 97.9 µM) | 27.3 µg/mL (≈ 65.6 µM)
5 | C/C1=C\CC(C)(C)/C=C/C(=O)N/C(C)=C/CC1 | 27.4 µg/mL (≈ 117 µM) | 9.84 µg/mL (≈ 42.2 µM) | 56.9 µg/mL (≈ 244 µM) | 39.6 µg/mL (≈ 170 µM)
6 | C/C1=C\CC(C)(C)/C=C/C(=N/OC(=O)c2ccccc2)C(/C)=C/CC1 | 3.64 µg/mL (≈ 10.8 µM) | 6.63 µg/mL (≈ 19.6 µM) | 14.3 µg/mL (≈ 42.3 µM) | 10.5 µg/mL (≈ 31.3 µM)
7 | Cc1c2ccncc2c(C)c2c1[nH]c1ccccc12 [ELLIPTECINE] | 0.33 µg/mL (≈ 1.34 µM) | 0.35 µg/mL (≈ 1.42 µM) | 0.39 µg/mL (≈ 1.58 µM) | 0.4 µg/mL (≈ 1.62 µM)
8 | COc1ccc(C(=O)O/N=C2/C=C/C(C)(C)C/C=C(\C)CC/C=C/2C)cc1 | 1.42 µg/mL (≈ 3.86 µM) | 1.43 µg/mL (≈ 3.89 µM) | 1.52 µg/mL (≈ 4.14 µM) | 1.93 µg/mL (≈ 5.25 µM)
9 | CC(=O)Oc1ccc(C(=O)O/N=C2/C=C/C(C)(C)C/C=C(\C)CC/C=C/2C)cc1 | 5.87 µg/mL (≈ 14.8 µM) | 3.55 µg/mL (≈ 8.98 µM) | 10.9 µg/mL (≈ 27.5 µM) | 9.37 µg/mL (≈ 23.7 µM)
10 | C/C1=C\CC(C)(C)/C=C/C(=N/OC(=O)c2ccccc2O)C(/C)=C/CC1 | 4.2 µg/mL (≈ 11.9 µM) | 3.99 µg/mL (≈ 11.3 µM) | 12 µg/mL (≈ 34 µM) | 9.04 µg/mL (≈ 25.6 µM)
11 | C/C1=C\CC(C)(C)/C=C/C(=N/OC(=O)[C@H](NC(=O)OC(C)(C)C)C(C)(C)C)C(/C)=C/CC1 | 1.15 µg/mL (≈ 2.57 µM) | 0.41 µg/mL (≈ 0.918 µM) | 1.37 µg/mL (≈ 3.07 µM) | 1.5 µg/mL (≈ 3.36 µM)
12 | C/C1=C\CC(C)(C)/C=C/C(=N/OC(=O)c2ccc([N+](=O)[O-])cc2)C(/C)=C/CC1 | 4.61 µg/mL (≈ 12.1 µM) | 9.88 µg/mL (≈ 25.8 µM) | 9.28 µg/mL (≈ 24.3 µM) | 6.66 µg/mL (≈ 17.4 µM)
13 | CC(=O)N1C(=O)/C=C/C(C)(C)C/C=C(\C)CC/C=C/1C | 32.9 µg/mL (≈ 120 µM) | 4.5 µg/mL (≈ 16.3 µM) | 44.1 µg/mL (≈ 160 µM) | 9.02 µg/mL (≈ 32.8 µM)
14 | C/C1=C\CC(C)(C)/C=C/C(=O)/C(C)=C/CC1 [ZERUMBONE] | 0.93 µg/mL (≈ 4.26 µM) | 0.86 µg/mL (≈ 3.94 µM) | 1.03 µg/mL (≈ 4.72 µM) | 1.11 µg/mL (≈ 5.08 µM)
15 | C/C1=C\CC(C)(C)/C=C/C(=N/OC(=O)c2cccc([N+](=O)[O-])c2)C(/C)=C/CC1 | 30.4 µg/mL (≈ 79.5 µM) | 29.8 µg/mL (≈ 77.8 µM) | 58.9 µg/mL (≈ 154 µM) | 41.8 µg/mL (≈ 109 µM)
16 | C/C1=C\CC(C)(C)/C=C/C(=O)[C@H](C)[C@H](Nc2ccc(Cl)cc2)CC1 | 56.2 µg/mL (≈ 163 µM) | 53.7 µg/mL (≈ 155 µM) | > 100 µg/mL | > 100 µg/mL
17 | C/C1=C\CC(C)(C)/C=C/C(=N/O)C(/C)=C/CC1 | > 100 µg/mL | 45.5 µg/mL (≈ 195 µM) | > 100 µg/mL | > 100 µg/mL
18 | COc1cc(C(=O)O/N=C2/C=C/C(C)(C)C/C=C(\C)CC/C=C/2C)ccc1OC(C)=O | 7.41 µg/mL (≈ 17.4 µM) | 10.7 µg/mL (≈ 25.2 µM) | 15.6 µg/mL (≈ 36.8 µM) | 10 µg/mL (≈ 23.5 µM)
19 | CC(=O)O/N=C1/C=C/C(C)(C)C/C=C(\C)CC/C=C/1C | 18.5 µg/mL (≈ 67.3 µM) | 11 µg/mL (≈ 39.9 µM) | 30.8 µg/mL (≈ 112 µM) | 23.8 µg/mL (≈ 86.3 µM)
20 | C#CCN[C@@H]1CC/C(C)=C/CC(C)(C)/C=C/C(=O)[C@@H]1C | 6.52 µg/mL (≈ 23.8 µM) | 9.59 µg/mL (≈ 35.1 µM) | 32.2 µg/mL (≈ 118 µM) | 11.5 µg/mL (≈ 42 µM)
21 | C/C1=C\CC(C)(C)/C=C/C(=N/OC(=O)c2cccc(Cl)c2)C(/C)=C/CC1 | 14.3 µg/mL (≈ 38.4 µM) | 10.6 µg/mL (≈ 28.5 µM) | 52.9 µg/mL (≈ 142 µM) | 38.3 µg/mL (≈ 103 µM)
